Key:
[1] = molecular target: T1, human Kv3.2 channels (hKv3.2) (Homo sapiens, UniProt Q96PR1); experiment: hKv3.2 recombinant cell assay, IonWorks Quattro planar array electrophysiology; assay type: cell-based; conditions: activity quantified by EC50
T1 construct: expressed in transfected cells
T1 sequence (Q96PR1 1-638): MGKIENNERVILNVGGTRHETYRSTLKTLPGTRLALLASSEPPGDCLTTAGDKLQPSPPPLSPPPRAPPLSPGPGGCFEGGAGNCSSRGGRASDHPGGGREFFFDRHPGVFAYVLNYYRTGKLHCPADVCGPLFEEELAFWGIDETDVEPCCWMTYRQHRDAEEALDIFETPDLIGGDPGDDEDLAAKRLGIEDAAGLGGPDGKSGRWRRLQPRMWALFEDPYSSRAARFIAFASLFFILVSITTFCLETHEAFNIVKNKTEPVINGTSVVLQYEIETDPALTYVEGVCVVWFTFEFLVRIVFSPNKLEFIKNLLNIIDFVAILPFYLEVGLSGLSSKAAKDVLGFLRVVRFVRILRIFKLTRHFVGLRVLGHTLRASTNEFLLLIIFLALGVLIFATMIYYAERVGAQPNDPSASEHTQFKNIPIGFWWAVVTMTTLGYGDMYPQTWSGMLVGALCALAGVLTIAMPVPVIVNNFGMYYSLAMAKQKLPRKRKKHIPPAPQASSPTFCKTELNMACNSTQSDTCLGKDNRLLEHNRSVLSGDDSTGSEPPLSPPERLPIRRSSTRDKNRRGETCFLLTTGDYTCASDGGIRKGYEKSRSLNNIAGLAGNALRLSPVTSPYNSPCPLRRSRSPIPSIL
Text: The ability of the compounds of the invention to modulate the voltage-gated potassium channel subtypes Kv3.2/3.1 may be determined using the following assay. The assay may also be used to determine the ability of compounds of the invention to modulate the voltage-gated potassium channel Kv3.3. Analogous methods may be used to investigate the ability of the compounds of the invention to modulate other channel subtypes.
To assess compound effects on human Kv3.2 channels (hKv3.2), a stable cell line expressing human Kv3.2 channels (hKv3.2) was created by transfecting Chinese Hamster Ovary (CHO)—K1 cells with a pCIH5-hKv3.2 vector. Cells were cultured in DMEM/F12 medium supplemented by 10% Foetal Bovine Serum, 1× non-essential amino acids (Invitrogen) and 500 ug/ml of Hygromycin-B (Invitrogen). Cells were grown and maintained at 37° C. in a humidified environment containing 5% CO2 in air. […]
Experiments were conducted at room temperature using IonWorks Quattro™ planar array electrophysiology technology (Molecular Devices Corp.) with PatchPlate™ PPC. […] Planar electrode hole resistances (Rp) were determined by applying a 10 mV voltage step across each well. […] Test pulses protocol may be performed in the absence (pre-read) and presence (post-read) of the test compound. Pre- and post-reads may be separated by the compound addition followed by a 3 minute incubation. […]

[2] = Determination of in vivo pharmacokinetic parameters (blood and brain) in rats, with and without Elacridar; conditions: rat, oral 1 mg/kg
Protocol: Adult male rats (Charles River, Italy) were dosed with test compound orally at 1 mg/kg (5 ml/kg, in 5% v/v DMSO, 0.5% w/v HPMC in water) and intravenously at 0.5 mg/kg (2 ml/kg, in 5% v/v DMSO 40% w/v PEG400 in saline). After oral administration, blood samples were collected under deep Isofluorane anesthesia from the portal vein and heart of each rat (1 rat per time point). After intravenous administration, serial blood samples were collected from the lateral tail vein of each rat. A further group of rats (n=1 per test compound) received a single intravenous administration of the PgP transport inhibitor, Elacridar (3 mg/kg) shortly before the oral administration of the test compound at 1 mg/kg, as above. Blood and brain samples were collected at a single timepoint of 0.5 h after dose administration for these animals. In all cases, blood samples were collected into potassium EDTA tubes.
Blood and brain samples were assayed for test compound concentration using a method based on protein precipitation with acetonitrile followed by HPLC/MS-MS analysis with an optimized analytical method.
The concentrations of test compound in blood (expressed as ng/ml) and brain (expressed as ng/g) at the different time points following either oral or intravenous dosing were analysed using a non-compartmental pharmacokinetic model using WinNonLin Professional version 4.1. The following parameters were drived:
Intravenous dosing: Maximum concentration over time (Cmax), integrated concentration over time (AUC), clearance (Clb), volume of distribution (Vss) and half-life (t1/2).
Oral dosing: Cmax, time of maximum concentration (Tmax), AUC, bioavailability (F %), fraction absorbed (Fa %), blood to brain ratio (AUC BB), and Fold-change in AUC BB in the presence of Elacridar.

Structure (SMILES): Cc1n[nH]c(=O)n1-c1ccc(Oc2cccc3c2C2(CC2)CO3)nc1 [Example 15, 5-methyl-4-[6-(spiro[1-benzofuran-3,1′-cyclopropan]-4-yloxy)pyridin-3-yl]-2,4-dihydro-3H-1,2,4-triazol-3-one]
- selectivity for modulation of Kv3.2 channels over Kv3.1 channels [1]: demonstrates selectivity for Kv3.2 channels
- AUC BB relative to Reference Example 87 and Reference Example 88 of WO2011069951A1 ([2]; AUC BB from blood and brain): at least two fold
- change in AUC BB in the presence of Elacridar ([2]; Elacridar 3 mg/kg i.v., blood and brain at 0.5 h, p-glycoprotein interaction): limited change

From patent publication US11180461B2, “Triazoles as Kv3 inhibitors” (AUTIFONY THERAPEUTICS LIMITED, priority 2012, dated 2021)
